Tested on: SOCE
Experiment: SOCE inhibition in HEK cells by fluorescence microscopy (calcium imaging)
Assay type: cell-based, human
Settings: for inhibition at 10 µM / inhibition at 3 µM: Homo sapiens; for inhibition at 10 µM: HEK293, HEK cells, negative value = increased Ca2+ entry vs control; for inhibition at 3 µM: HEK293, supplementary CSV, read-out: % SOCE Inhibition (3 µM); for AUC, peak amplitude, and slope of the Ca2+-rise: selected compounds, Figure S1
Method: With these two compounds in hand, two click reactions were performed and compounds 9 and 18 (Table 1), displaying the same substructures as the reference compound Synta66, were obtained with a yield of 31 and 60%, respectively. 9 and 18 were tested for activity on SOCE in HEK cells, a human embryonic kidney (HEK) cell line, by fluorescence microscopy, as described elsewhere.[16] After 600 s, Ca^2+ was added and intracellular levels were measured.
Screening, dose–response experiments, and calcium imaging experiments were performed in HEK cells (ATCC, Rock, ville, MD, USA), as already reported elsewhere.[16]

SMILES	effect on SOCE, in words (HEK cells)	inhibition at 10 µM (10 μM)	also measured
COc1ccc(OC)c(-c2ccc(-n3cc(-c4ccncc4F)nn3)cc2)c1 [Compound 9, 4-(1-(2′,5′-Dimethoxy-[1,1′-biphenyl]-4-yl)-1H-1,2,3-triazol-4-yl)-3-fluoropyridine]	not able to reliably inhibit SOCE	–	–
COc1ccc(OC)c(-c2ccc(-n3cc(-c4ccncc4)nn3)cc2)c1 [Compound 10, 4-(1-(2′,5′-Dimethoxy-[1,1′-biphenyl]-4-yl)-1H-1,2,3-triazol-4-yl)pyridine]	not able to reliably inhibit SOCE	-12.8 ± 14.4%	inhibition at 3 µM (HEK cells): -12.8 ± 14.4%
COc1ccc(OC)c(-c2ccc(-n3cc(-c4cccnc4)nn3)cc2)c1 [Compound 11, 3-(1-(2′,5′-Dimethoxy-[1,1′-biphenyl]-4-yl)-1H-1,2,3-triazol-4-yl)pyridine]	not able to reliably inhibit SOCE	-14 ± 31.9%	inhibition at 3 µM (HEK cells): -14 ± 31.9%
COc1ccc(OC)c(-c2ccc(-n3cc(-c4ccccn4)nn3)cc2)c1 [Compound 12, 2-(1-(2′,5′-Dimethoxy-[1,1′-biphenyl]-4-yl)-1H-1,2,3-triazol-4-yl)pyridine]	–	0%	inhibition at 3 µM (HEK cells): 0%
COc1ccc(OC)c(-c2ccc(-n3cc(-c4ccnc(C(=O)O)c4)nn3)cc2)c1 [Compound 13, 4-(1-(2′,5′-Dimethoxy-[1,1′-biphenyl]-4-yl)-1H-1,2,3-triazol-4-yl)picolinic Acid]	–	> 70%	–
COc1ccc(OC)c(-c2ccc(-n3cc(-c4cccc(C(=O)O)c4)nn3)cc2)c1 [Compound 14, 3-(1-(2′,5′-Dimethoxy-[1,1′-biphenyl]-4-yl)-1H-1,2,3-triazol-4-yl)benzoic Acid]	–	> 70%	–
COc1ccc(OC)c(-c2ccc(-c3cn(-c4ccncc4)nn3)cc2)c1 [Compound 19, 4-(4-(2′,5′-Dimethoxy-[1,1′-biphenyl]-4-yl)-1H-1,2,3-triazol-1-yl)pyridine]	not able to reliably inhibit SOCE	–	–
COc1ccc(OC)c(-c2ccc(-c3cn(-c4cccnc4)nn3)cc2)c1 [Compound 20, 3-(4-(2′,5′-Dimethoxy-[1,1′-biphenyl]-4-yl)-1H-1,2,3-triazol-1-yl)pyridine]	not able to reliably inhibit SOCE	–	–
COC(=O)c1cc(-n2cc(-c3ccc(-c4cc(OC)ccc4OC)cc3)nn2)ccn1 [Compound 21, Methyl 4-(4-(2′,5′-Dimethoxy-[1,1′-biphenyl]-4-yl)-1H-1,2,3-triazol-1-yl)picolinate]	–	> 70%	–
COc1ccc(OC)c(-c2ccc(-c3cn(-c4cccc(C(=O)O)c4)nn3)cc2)c1 [Compound 23, 3-(4-(2′,5′-Dimethoxy-[1,1′-biphenyl]-4-yl)-1H-1,2,3-triazol-1-yl)benzoic Acid]	–	> 70%	AUC and peak amplitude of the Ca2+-rise vs control (HEK cells, 10 μM): significantly reduced AUC and peak amplitude
COc1cccc(-c2ccc(-n3cc(-c4cccc(C(=O)O)c4)nn3)cc2)c1 [Compound 31, 3-(1-(3′-Methoxy-[1,1′-biphenyl]-4-yl)-1H-1,2,3-triazol-4-yl)benzoic Acid]	–	–	AUC, peak amplitude, and slope of the Ca2+-rise (HEK cells): induced a drop in the three parameters
O=C(O)c1cccc(-c2cn(-c3ccc(-c4cccc5c4OCCO5)cc3)nn2)c1 [Compound 35, 3-(1-(4-(2,3-Dihydrobenzo[b][1,4]dioxin-5-yl)phenyl)-1H-1,2,3-triazol-4-yl)benzoic Acid]	–	–	AUC, peak amplitude, and slope of the Ca2+-rise (HEK cells): induced a drop in the three parameters
COc1cc(OC)cc(-c2ccc(-n3cc(-c4cccc(C(=O)O)c4)nn3)cc2)c1 [Compound 36, 3-(1-(3′,5′-Dimethoxy-[1,1′-biphenyl]-4-yl)-1H-1,2,3-triazol-4-yl)benzoic Acid]	–	–	AUC, peak amplitude, and slope of the Ca2+-rise (HEK cells): induced a drop in the three parameters
O=C(O)c1cccc(-c2cn(-c3ccc(-c4ccc5c(c4)OCCO5)cc3)nn2)c1 [Compound 38, 3-(1-(4-(2,3-Dihydrobenzo[b][1,4]dioxin-6-yl)phenyl)-1H-1,2,3-triazol-4-yl)benzoic Acid]	–	–	AUC, peak amplitude, and slope of the Ca2+-rise (HEK cells): induced a drop in the three parameters

From publication PMC7735735, “Store-Operated Calcium Entry as a Therapeutic Target in Acute Pancreatitis: Discovery and Development of Drug-Like SOCE Inhibitors” (Journal of Medicinal Chemistry, 2020)
